Measurements published in patent publication US9487749B2 (priority 2009, dated 2016).

Columns and labels:
[1] = tested on: Chlorella minutissima; experiment: Algal growth with MSM by percent transmittance; format: cell-based
Experimental: (§1) Two species of Chlorella were examined for growth—Chlorella sorokiniana a freshwater species and Chlorella minutissima a marine species. […] Growth was measured on day 0, 1, 2, 3, 4, 5, 6, 7, 8, 9 and 10. […] The following media were purchased from UTEX Culture Collection of Algae: Enriched Salt Water Medium and Volvox Dextrose Medium.
(§2) The algae were grown for 48 hours in the appropriate medium. The initial suspension was enumerated for each alga and is referred to as the starting inoculums. Chlorella sorokiniana was at 381 million cells per milliliter and Chlorella minutissima was at 19 million cells per milliliter. One milliliter of the algal solution was placed into 9 mLs of medium and mixed by vortexing. […] The tube of algae and MSM were incubated at room temperature with exposure to sunlight. […] Each dilution of MSM for each organism was set up in and analyzed in triplicate for each time interval measured. The samples were measured by percent transmittance on a UV/VIS spectrophotometer at wavelength 750 nm. The medium stock was tested for percent transmittance background levels at every time interval were measured. The lower percent transmittance indicated a higher growth factor.

[2] = tested on: Chlorella sorokiniana; experiment: Algal growth with MSM by percent transmittance; format: cell-based
Experimental: as §1, §2

SMILES: CS(C)(=O)=O [MSM, Methylsulfonylmethane]
- percent transmittance ([1]; MSM Percentage 0.5, day 0, 750 nm): 93.5%
- percent transmittance ([1]; MSM Percentage 0.5, day 1, 750 nm): 70.1%
- percent transmittance ([1]; MSM Percentage 0.5, day 2, 750 nm): 45.4%
- percent transmittance ([1]; MSM Percentage 0.5, day 3, 750 nm): 32.1%
- percent transmittance ([1]; MSM Percentage 0.5, day 4, 750 nm): 27.6%
- percent transmittance ([1]; MSM Percentage 0.5, day 5, 750 nm): 26.6%
- percent transmittance ([1]; MSM Percentage 0.5, day 6, 750 nm): 25.1%
- percent transmittance ([1]; MSM Percentage 0.5, day 7, 750 nm): 23.6%
- percent transmittance ([1]; MSM Percentage 0.5, day 8, 750 nm): 22.8%
- percent transmittance ([1]; MSM Percentage 0.5, day 9, 750 nm): 20.4%
- percent transmittance ([1]; MSM Percentage 0.5, day 10, 750 nm): 18.9%
- percent transmittance ([1]; MSM Percentage 1.0, day 0, 750 nm): 91.1%
- percent transmittance ([1]; MSM Percentage 1.0, day 1, 750 nm): 80.5%
- percent transmittance ([1]; MSM Percentage 1.0, day 2, 750 nm): 40.0%
- percent transmittance ([1]; MSM Percentage 1.0, day 3, 750 nm): 31.0%
- percent transmittance ([1]; MSM Percentage 1.0, day 4, 750 nm): 27.9%
- percent transmittance ([1]; MSM Percentage 1.0, day 5, 750 nm): 26.5%
- percent transmittance ([1]; MSM Percentage 1.0, day 6, 750 nm): 25.4%
- percent transmittance ([1]; MSM Percentage 1.0, day 7, 750 nm): 24.4%
- percent transmittance ([1]; MSM Percentage 1.0, day 8, 750 nm): 23.7%
- percent transmittance ([1]; MSM Percentage 1.0, day 9, 750 nm): 21.0%
- percent transmittance ([1]; MSM Percentage 1.0, day 10, 750 nm): 19.4%
- percent transmittance ([1]; MSM Percentage 2.5, day 0, 750 nm): 82.8%
- percent transmittance ([1]; MSM Percentage 2.5, day 1, 750 nm): 75.1%
- percent transmittance ([1]; MSM Percentage 2.5, day 2, 750 nm): 59.5%
- percent transmittance ([1]; MSM Percentage 2.5, day 3, 750 nm): 45.4%
- percent transmittance ([1]; MSM Percentage 2.5, day 4, 750 nm): 33.6%
- percent transmittance ([1]; MSM Percentage 2.5, day 5, 750 nm): 32.4%
- percent transmittance ([1]; MSM Percentage 2.5, day 6, 750 nm): 30.0%
- percent transmittance ([1]; MSM Percentage 2.5, day 7, 750 nm): 28.6%
- percent transmittance ([1]; MSM Percentage 2.5, day 8, 750 nm): 27.7%
- percent transmittance ([1]; MSM Percentage 2.5, day 9, 750 nm): 23.3%
- percent transmittance ([1]; MSM Percentage 2.5, day 10, 750 nm): 21.1%
- percent transmittance ([1]; MSM Percentage 5.0, day 0, 750 nm): 68.9%
- percent transmittance ([1]; MSM Percentage 5.0, day 1, 750 nm): 87.4%
- percent transmittance ([1]; MSM Percentage 5.0, day 2, 750 nm): 76.5%
- percent transmittance ([1]; MSM Percentage 5.0, day 3, 750 nm): 62.0%
- percent transmittance ([1]; MSM Percentage 5.0, day 4, 750 nm): 52.9%
- percent transmittance ([1]; MSM Percentage 5.0, day 5, 750 nm): 52.2%
- percent transmittance ([1]; MSM Percentage 5.0, day 6, 750 nm): 50.7%
- percent transmittance ([1]; MSM Percentage 5.0, day 7, 750 nm): 51.0%
- percent transmittance ([1]; MSM Percentage 5.0, day 8, 750 nm): 51.9%
- percent transmittance ([1]; MSM Percentage 5.0, day 9, 750 nm): 47.1%
- percent transmittance ([1]; MSM Percentage 5.0, day 10, 750 nm): 44.1%
- percent transmittance ([1]; MSM Percentage 10.0, day 0, 750 nm): 49.6%
- percent transmittance ([1]; MSM Percentage 10.0, day 1, 750 nm): 49.2%
- percent transmittance ([1]; MSM Percentage 10.0, day 2, 750 nm): 50.8%
- percent transmittance ([1]; MSM Percentage 10.0, day 3, 750 nm): 51.9%
- percent transmittance ([1]; MSM Percentage 10.0, day 4, 750 nm): 52.0%
- percent transmittance ([1]; MSM Percentage 10.0, day 5, 750 nm): 51.9%
- percent transmittance ([1]; MSM Percentage 10.0, day 6, 750 nm): 54.9%
- percent transmittance ([1]; MSM Percentage 10.0, day 7, 750 nm): 56.1%
- percent transmittance ([1]; MSM Percentage 10.0, day 8, 750 nm): 58.6%
- percent transmittance ([1]; MSM Percentage 10.0, day 9, 750 nm): 41.4%
- percent transmittance ([1]; MSM Percentage 10.0, day 10, 750 nm): 36.7%
- percent transmittance ([1]; MSM Percentage 20.0, day 0, 750 nm): 30.0%
- percent transmittance ([1]; MSM Percentage 20.0, day 1, 750 nm): 33.8%
- percent transmittance ([1]; MSM Percentage 20.0, day 2, 750 nm): 51.1%
- percent transmittance ([1]; MSM Percentage 20.0, day 3, 750 nm): 54.8%
- percent transmittance ([1]; MSM Percentage 20.0, day 4, 750 nm): 57.3%
- percent transmittance ([1]; MSM Percentage 20.0, day 5, 750 nm): 57.5%
- percent transmittance ([1]; MSM Percentage 20.0, day 6, 750 nm): 57.4%
- percent transmittance ([1]; MSM Percentage 20.0, day 7, 750 nm): 57.1%
- percent transmittance ([1]; MSM Percentage 20.0, day 8, 750 nm): 55.8%
- percent transmittance ([1]; MSM Percentage 20.0, day 9, 750 nm): 45.1%
- percent transmittance ([1]; MSM Percentage 20.0, day 10, 750 nm): 30.2%
- percent transmittance ([2]; MSM 0.5, day 0, 750 nm): 47.3%
- percent transmittance ([2]; MSM 0.5, day 1, 750 nm): 41.8%
- percent transmittance ([2]; MSM 0.5, day 2, 750 nm): 29.3%
- percent transmittance ([2]; MSM 0.5, day 3, 750 nm): 29.6%
- percent transmittance ([2]; MSM 0.5, day 4, 750 nm): 19.0%
- percent transmittance ([2]; MSM 0.5, day 5, 750 nm): 12.4%
- percent transmittance ([2]; MSM 0.5, day 6, 750 nm): 12.5%
- percent transmittance ([2]; MSM 0.5, day 7, 750 nm): 11.9%
- percent transmittance ([2]; MSM 0.5, day 8, 750 nm): 12.2%
- percent transmittance ([2]; MSM 0.5, day 9, 750 nm): 7.5%
- percent transmittance ([2]; MSM 0.5, day 10, 750 nm): 6.4%
- percent transmittance ([2]; MSM 1, day 0, 750 nm): 48.7%
- percent transmittance ([2]; MSM 1, day 1, 750 nm): 42.5%
- percent transmittance ([2]; MSM 1, day 2, 750 nm): 37.5%
- percent transmittance ([2]; MSM 1, day 3, 750 nm): 37.5%
- percent transmittance ([2]; MSM 1, day 4, 750 nm): 17.3%
- percent transmittance ([2]; MSM 1, day 5, 750 nm): 13.5%
- percent transmittance ([2]; MSM 1, day 6, 750 nm): 13.0%
- percent transmittance ([2]; MSM 1, day 7, 750 nm): 12.5%
- percent transmittance ([2]; MSM 1, day 8, 750 nm): 12.4%
- percent transmittance ([2]; MSM 1, day 9, 750 nm): 7.8%
- percent transmittance ([2]; MSM 1, day 10, 750 nm): 6.6%
- percent transmittance ([2]; MSM 2.5, day 0, 750 nm): 40.6%
- percent transmittance ([2]; MSM 2.5, day 1, 750 nm): 43.1%
- percent transmittance ([2]; MSM 2.5, day 2, 750 nm): 44.9%
- percent transmittance ([2]; MSM 2.5, day 3, 750 nm): 43.8%
- percent transmittance ([2]; MSM 2.5, day 4, 750 nm): 26.1%
- percent transmittance ([2]; MSM 2.5, day 5, 750 nm): 10.3%
- percent transmittance ([2]; MSM 2.5, day 6, 750 nm): 10.9%
- percent transmittance ([2]; MSM 2.5, day 7, 750 nm): 11.0%
- percent transmittance ([2]; MSM 2.5, day 8, 750 nm): 11.2%
- percent transmittance ([2]; MSM 2.5, day 9, 750 nm): 8.4%
- percent transmittance ([2]; MSM 2.5, day 10, 750 nm): 6.0%
- percent transmittance ([2]; MSM 5, day 0, 750 nm): 35.6%
- percent transmittance ([2]; MSM 5, day 1, 750 nm): 31.2%
- percent transmittance ([2]; MSM 5, day 2, 750 nm): 27.4%
- percent transmittance ([2]; MSM 5, day 3, 750 nm): 21.4%
- percent transmittance ([2]; MSM 5, day 4, 750 nm): 18.2%
- percent transmittance ([2]; MSM 5, day 5, 750 nm): 15.7%
- percent transmittance ([2]; MSM 5, day 6, 750 nm): 15.9%
- percent transmittance ([2]; MSM 5, day 7, 750 nm): 16.3%
- percent transmittance ([2]; MSM 5, day 8, 750 nm): 17.0%
- percent transmittance ([2]; MSM 5, day 9, 750 nm): 13.7%
- percent transmittance ([2]; MSM 5, day 10, 750 nm): 12.8%
- percent transmittance ([2]; MSM 10, day 0, 750 nm): 31.2%
- percent transmittance ([2]; MSM 10, day 1, 750 nm): 31.3%
- percent transmittance ([2]; MSM 10, day 2, 750 nm): 29.7%
- percent transmittance ([2]; MSM 10, day 3, 750 nm): 28.4%
- percent transmittance ([2]; MSM 10, day 4, 750 nm): 29.0%
- percent transmittance ([2]; MSM 10, day 5, 750 nm): 28.7%
- percent transmittance ([2]; MSM 10, day 6, 750 nm): 27.1%
- percent transmittance ([2]; MSM 10, day 7, 750 nm): 27.6%
- percent transmittance ([2]; MSM 10, day 8, 750 nm): 27.1%
- percent transmittance ([2]; MSM 10, day 9, 750 nm): 76.4%
- percent transmittance ([2]; MSM 10, day 10, 750 nm): 93.8%
- percent transmittance ([2]; MSM 20, day 0, 750 nm): 19.3%
- percent transmittance ([2]; MSM 20, day 1, 750 nm): 21.9%
- percent transmittance ([2]; MSM 20, day 2, 750 nm): 24.1%
- percent transmittance ([2]; MSM 20, day 3, 750 nm): 28.1%
- percent transmittance ([2]; MSM 20, day 4, 750 nm): 31.4%
- percent transmittance ([2]; MSM 20, day 5, 750 nm): 33.6%
- percent transmittance ([2]; MSM 20, day 6, 750 nm): 36.8%
- percent transmittance ([2]; MSM 20, day 7, 750 nm): 40.6%
- percent transmittance ([2]; MSM 20, day 8, 750 nm): 40.8%
- percent transmittance ([2]; MSM 20, day 9, 750 nm): 84.8%
- percent transmittance ([2]; MSM 20, day 10, 750 nm): 96.7%
